Measurements from US7671054B1, “Reverse-turn mimetics and method relating thereto” (Choongwae Pharma Corporation, priority 2001, dated 2010).

Assays:
Format in all cases: cell-based
[1] = tested on: TCF4/β-catenin transcription (TOPFlash) in SW480 cells; assay: Reporter gene assay (TOPFlash luciferase); details: Homo sapiens, SW480, Table 4; Reporter gene assay as described in Example 6; read-out: IC50
Method in brief: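 SW480 cells transiently co-transfected with TOPFlash and pRL-null (4:1 µg) using Superfect, then reseeded at 3×10^4 cells/well and incubated overnight at 37 °C. Compound treatment lasted 24 h before luciferase read-out.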

HCT116 cells = assay: Growth inhibition assay (MTS); details: Homo sapiens, HCT-116, 48 h, Table 5; HCT116 cells, 48 hours treatment, MTS; read-out: Growth Inhibition (GI50, uM) HCT116
Method in brief: (§1)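 Cells seeded at 10^4 per well, grown 24 h at 37° C, then exposed to compound at various concentrations for 48 hours. MTS added for 2 h; absorbance at 490 nm gave viability, with cytotoxicity calculated per concentration against pre-treatment reading.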

SW480 cells = assay: Growth inhibition assay (MTS); details: Homo sapiens, SW480, 48 h, Table 5; SW480 cells, 48 hours treatment, MTS; read-out: Growth Inhibition (GI50, uM) SW480
Method in brief: as §1

Survivin = assay: Effect on survivin expression (Table 9)
Excerpt: (§2) The effects of various compounds having general formula (I) on survivin and TCF4 expression were characterized.

TCF4 = assay: Effect on TCF4 expression (Table 9)
Excerpt: as §2

SMILES | IC50 [1] | GI50 (HCT116 cells) | GI50 (SW480 cells) | IC50 (TCF4) | inhibition at 5 µM (Survivin) | inhibition at 25 µM (Survivin)
CN1CC(=O)N2C(CN(Cc3cc(F)c(F)c(F)c3)C(=O)[C@@H]2Cc2ccc(O)cc2)N1C(=O)NCc1ccccc1 (stereo in doubt) [Compound 16] | 3.8 µM | 2.95 µM | 4.18 µM |  |  | 
Cc1ccc(N(C)C(C)C)c(CN2C[C@@H]3N(C(=O)CN(C)N3C(=O)NCc3ccccc3)[C@@H](Cc3ccc(O)cc3)C2=O)c1 |  |  |  | 10.7 ± 1.9 µM | 14% | 99%
CN1CC(=O)N2[C@@H](CN(Cc3cccc4cn[nH]c34)C(=O)[C@@H]2Cc2ccc(O)cc2)N1C(=O)NCc1ccccc1 |  |  |  | 4.6 ± 0.7 µM | 80% | 97%
Cc1cccc(N(C)C)c1CN1C[C@@H]2N(C(=O)CN(C)N2C(=O)NCc2ccccc2)[C@@H](Cc2ccc(O)cc2)C1=O |  |  |  |  | 8% | 4%
CN(C)c1cc(F)c(F)cc1CN1C[C@@H]2N(C(=O)CN(C)N2C(=O)NCc2ccccc2)[C@@H](Cc2ccc(O)cc2)C1=O |  |  |  | 1.4 ± 0.2 µM | 9% | 91%
CN(C)c1c(CN2C[C@@H]3N(C(=O)CN(C)N3C(=O)NCc3ccccc3)[C@@H](Cc3ccc(O)cc3)C2=O)cccc1C(F)(F)F |  |  |  | 5.2 ± 1.1 µM | 0% | 91%
CN1CC(=O)N2[C@@H](Cc3ccc(O)cc3)C(=O)N(Cc3cccc4ccccc34)C[C@@]2(C)N1C(=O)NCc1ccccc1 |  |  |  | ~2 µM | 100% | 99%
CN1CC(=O)N2C(Cc3ccc(O)cc3)C(=O)N(Cc3cccc4cccnc34)CC2N1C(=O)NCc1ccccc1 (centres unmarked) |  |  |  | ~2.2 µM | 97% | 100%
CN1CC(=O)N2[C@@H](CN(Cc3c(Cl)ccc4cccnc34)C(=O)[C@@H]2Cc2ccc(O)cc2)N1C(=O)NCc1ccccc1 |  |  |  | 50.4 ± 7 µM | 0% | 32%
CN1CC(=O)N2[C@@H](CN(Cc3ccc(Cl)c4cccnc34)C(=O)[C@@H]2Cc2ccc(O)cc2)N1C(=O)NCc1ccccc1 |  |  |  | 2.6 ± 0.6 µM | 86% | 91%
Cc1cc(C)c(N(C)C)c(CN2C[C@@H]3N(C(=O)CN(C)N3C(=O)NCc3ccccc3)[C@@H](Cc3ccc(O)cc3)C2=O)c1 |  |  |  | 4.8 ± 0.4 µM | 0% | 84%
CN1CC(=O)N2[C@@H](CN(Cc3cccc4cnn(C)c34)C(=O)[C@@H]2Cc2ccc(O)cc2)N1C(=O)NCc1ccccc1 |  |  |  | 2.8 ± 0.4 µM | 82% | 97%
CN1CC(=O)N2[C@@H](Cc3ccc(O)cc3)C(=O)N(Cc3cccc4nnn(C)c34)C[C@@H]2N1C(=O)NCc1ccccc1 [Compound 52] |  | 9.7 ± 0.9 µM | 19.3 ± 2.1 µM |  |  | 
O=C1[C@H](Cc2ccc(O)cc2)N2C(=O)CON(C(=O)NCc3ccccc3)[C@H]2CN1Cc1cccc2cccnc12 [Compound 92] |  | 14.9 ± 2.2 µM | 12.9 ± 1 µM |  |  | 
CN1CC(=O)N2[C@@H](Cc3ccc(O)cc3)C(=O)N(Cc3ccccc3C(F)(F)F)C[C@@H]2N1C(=O)NCc1ccccc1 [Compound 7] |  | 0.73 µM | 1.22 µM |  |  | 
C[C@H]1[C@H]2N(C(=O)CN(C)N2C(=O)NCc2ccccc2)[C@@H](Cc2ccc(O)cc2)C(=O)N1Cc1ccc(Cl)c(N(C)C)c1 [Compound 57] |  | 5.1 ± 0.3 µM | 3.1 ± 0.3 µM |  |  | 
C#CCNC(=O)c1ccccc1Cn1ncc2c(CN3C[C@H]4N(C(=O)CN(C)N4C(=O)NCc4ccccc4)[C@@H](Cc4ccc(O)cc4)C3=O)cccc21 [Compound 80] |  | 3.9 ± 0.6 µM | 4 ± 0.6 µM |  |  | 
CN1CC(=O)N2[C@@H](Cc3ccc(O)cc3)C(=O)N(Cc3cccc4cnn(Cc5cccc(N)c5)c34)C[C@@H]2N1C(=O)NCc1ccccc1 [Compound 67] |  | 0.3 ± 0.03 µM | 0.6 ± 0.2 µM |  |  | 
C=CCN1CC(=O)N2[C@@H](Cc3ccc(NC=O)cc3)C(=O)N(Cc3ccc(F)cc3F)C[C@@H]2N1C(=O)NCc1ccccc1 [Compound 129] |  | 3.1 ± 0.3 µM | 2.9 ± 0.5 µM |  |  | 
CN1CC(=O)N2C(CN(Cc3ccc(Cl)cc3Cl)C(=O)[C@@H]2Cc2ccc(O)cc2)N1C(=O)NCc1ccccc1 (some centres unmarked) [Compound 18] |  | 3.52 µM | 4.63 µM |  |  | 
CN1CC(=O)N2[C@@H](Cc3ccc(O)cc3)C(=O)N(Cc3cccc4cnn(CCN5CCOCC5)c34)C[C@@H]2N1C(=O)NCc1ccccc1 [Compound 69] |  | 9.7 ± 1 µM | 17.9 ± 3.1 µM |  |  | 
C=CCN1CC(=O)N2[C@@H](Cc3ccc(O)cc3)C(=O)N(Cc3ccc(OC)cc3)C[C@@H]2N1C(=O)NCc1ccccc1 [Compound 178] |  | 1.5 ± 4.4 µM | 1.6 ± 0.2 µM |  |  | 
C=CCN1CC(=O)N2[C@@H](Cc3ccc(O)cc3)C(=O)N(Cc3cccc4c3N(C)CCO4)C[C@@H]2N1C(=O)NCc1ccccc1 [Compound 117] |  | 0.3 ± 0.02 µM | 0.6 ± 0.1 µM |  |  | 
CN1CC(=O)N2[C@@H](Cc3ccc(O)cc3)C(=O)N(Cc3ccc(F)cc3C(F)(F)F)C[C@@H]2N1C(=O)NCc1ccccc1 [Compound 23] |  | 25.4 µM | 3.9 µM |  |  | 
CN1CC(=O)N2[C@@H](Cc3ccc(O)cc3)C(=O)N(Cc3cc(F)c(F)c(F)c3)C[C@@H]2N1C(=O)NCc1ccccc1 [Compound 17] |  | 0.74 µM | 1.12 µM |  |  | 
CN1CC(=O)N2[C@@H](Cc3ccc(O)cc3)C(=O)N(Cc3cccc4cnn(Cc5ccccc5[N+](=O)[O-])c34)C[C@@H]2N1C(=O)NCc1ccccc1 [Compound 51] |  | 2.8 µM | 3 ± 0.1 µM |  |  | 

Second part, led by results:

IC50 [1] | GI50 (HCT116 cells) | GI50 (SW480 cells) | IC50 (TCF4) | SMILES | inhibition at 5 µM (Survivin) | inhibition at 25 µM (Survivin)
 |  |  | 7.3 ± 1.1 µM | CN(C)c1c(Cl)cccc1CN1C[C@@H]2N(C(=O)CN(C)N2C(=O)NCc2ccccc2)[C@@H](Cc2ccc(O)cc2)C1=O | 0% | 21%
 |  |  | 13.2 ± 4.1 µM | CN1CC(=O)N2[C@@H](CN(Cc3cccc4c3ncn4C)C(=O)[C@@H]2Cc2ccc(O)cc2)N1C(=O)NCc1ccccc1 | 45% | 88%
 |  |  | 10.9 ± 1.3 µM | Cc1cccc(CN2C[C@@H]3N(C(=O)CN(C)N3C(=O)NCc3ccccc3)[C@@H](Cc3ccc(O)cc3)C2=O)c1N(C)C | 0% | 68%
 |  |  | 2.6 ± 0.4 µM | Cc1ccc(N(C)C)c(CN2C[C@@H]3N(C(=O)CN(C)N3C(=O)NCc3ccccc3)[C@@H](Cc3ccc(O)cc3)C2=O)c1 | 0% | 94%
 |  |  | 5.9 ± 0.5 µM | COc1cccc(CN2C[C@@H]3N(C(=O)CN(C)N3C(=O)NCc3ccccc3)[C@@H](Cc3ccc(O)cc3)C2=O)c1N(C)C | 9% | 92%
 |  |  | ~6.3 µM | CN1CC(=O)N2C(Cc3ccc(O)cc3)C(=O)N(Cc3ccc(F)cc3F)CC2N1C(=O)NCc1ccccc1 (centres unmarked) | 51% | 93%
 |  |  | 3.5 ± 0.3 µM | CCN(CC)c1cccc(CN2C[C@@H]3N(C(=O)CN(C)N3C(=O)NCc3ccccc3)[C@@H](Cc3ccc(O)cc3)C2=O)c1 | 0% | 77%
 |  |  | 13.9 ± 2.3 µM | CN(C)c1cc(Cl)ccc1CN1C[C@@H]2N(C(=O)CN(C)N2C(=O)NCc2ccccc2)[C@@H](Cc2ccc(O)cc2)C1=O | 6% | 89%
 |  |  | 6.3 ± 0.431 µM | CC(C)N(C)c1cccc(CN2C[C@@H]3N(C(=O)CN(C)N3C(=O)NCc3ccccc3)[C@@H](Cc3ccc(O)cc3)C2=O)c1 | 5% | 91%
 |  |  | 10.7 ± 1.7 µM | CC(C)N(C)c1ccccc1CN1C[C@@H]2N(C(=O)CN(C)N2C(=O)NCc2ccccc2)[C@@H](Cc2ccc(O)cc2)C1=O | 27% | 98%
 |  |  | 27.1 ± 4.6 µM | CC(C)N(C)c1ccc(Cl)c(CN2C[C@@H]3N(C(=O)CN(C)N3C(=O)NCc3ccccc3)[C@@H](Cc3ccc(O)cc3)C2=O)c1 | 25% | 44%
 |  |  | 4.4 ± 0.6 µM | CCN(C)c1cccc(CN2C[C@@H]3N(C(=O)CN(C)N3C(=O)NCc3ccccc3)[C@@H](Cc3ccc(O)cc3)C2=O)c1 | 46% | 96%
 |  |  | 1.7 ± 0.2 µM | CN(C)c1cc(F)ccc1CN1C[C@@H]2N(C(=O)CN(C)N2C(=O)NCc2ccccc2)[C@@H](Cc2ccc(O)cc2)C1=O | 79% | 81%
 |  |  | 3.9 ± 0.55 µM | Cc1c(CN2C[C@@H]3N(C(=O)CN(C)N3C(=O)NCc3ccccc3)[C@@H](Cc3ccc(O)cc3)C2=O)cccc1N(C)C | 48% | 96%
 |  |  | 5.2 ± 0.7 µM | CN(C)c1ccccc1CN1C[C@@H]2N(C(=O)CN(C)N2C(=O)NCc2ccccc2)[C@@H](Cc2ccc(O)cc2)C1=O | 41% | 92%
 | 1.67 µM | 5.25 µM |  | COc1cccc(CN2CC3N(C(=O)CN(C)N3C(=O)NCc3ccccc3)[C@@H](Cc3ccc(O)cc3)C2=O)c1OC (some centres unmarked) [Compound 21] |  | 
 | 7.2 ± 0.7 µM | 7.4 ± 0.6 µM |  | CN1CC(=O)N2[C@@H](Cc3ccc(O)cc3)C(=O)N(Cc3ccc4cccnc4c3)C[C@@H]2N1C(=O)NCc1ccccc1 [Compound 70] |  | 
 | 5.4 µM | 14.1 µM |  | CC(C)N(C)c1ccccc1CN1C[C@H]2N(C(=O)CN(C)N2C(=O)NCc2ccccc2)[C@@H](Cc2ccc(O)cc2)C1=O [Compound 30] |  | 
 | 5.2 ± 0.5 µM | 7.1 ± 1 µM |  | CCN1CC(=O)N2[C@@H](Cc3ccc(O)cc3)C(=O)N(Cc3ccc(Cl)c(N(C)C)c3)C[C@@H]2N1C(=O)NCc1ccccc1 [Compound 97] |  | 
